Measurements: patent US4753928A, “Process for obtaining sexual products from mammals suitable for natural or artificial fertilization” (INNOFINANCE Altalanos Innovacios Pengintezet, priority 1985, dated 1988)
Where a SMILES comes first, the peptide text is derived from it. [ ]: non-standard residue; d: D form. pGlu = O=C1CC[C@@H](C(=O)O)N1

Experiments:
infant domestic rabbits = test: Inducing super-ovulation in infant domestic rabbits; assay type: in vivo, rabbit; details: 5 μg twice daily 3 days i.p., 50 μg on 4th day, after 26 hours; 42-day old rabbits
Method: 20 42-day old rabbit whelps of the white pearl variety reared under large scale farming conditions were administered twice daily for three days 5 μg of D-Phe^6, Gln^8 -GnRH analogue intraperitoneally. Then the animals were divided into two groups and the one half of them was treated with 50 μg of active ingredient on the 4th day while the other half was killed with vapour of ether before treatment began. Developed follicles of this group were counted and used as control in determining the effect of the 50 μg dose. From the group kept alive, two animals were selected and through laparoscope probing their ovulation process was monitored for 10 hours while the animals were kept under narcosis (abdominal cavity was mirrored).

infant female pigs = test: Inducing super-ovulation in infant pigs; assay type: in vivo; details: 10 μg twice daily 6 days i.m., 100 μg on 7th day, after 41 hours; 100-day old pigs
Method: 20 100-day old infant female pigs were treated for 6 days, twice daily, with 10 μg doses each consisting of D-Phe^6 -Gln^8 -GnRH analogue administered intramuscularly. In the test half side of the ovaries in the control animals was removed and, by using the test method detailed in Example 3, the number of the Graf-follicles and of corpora lutea formed was compared. Occurrence of ovulation was detected by laparoscopy. […] Treatment of these animals produced similar results as described in Examples 1 to 3.

bison bull = test: Inducing spermiogenesis of bison bull in seasonal oligospermia; assay type: in vivo; details: 55th day
Excerpt: From bison bull belonging to Zoo and weighing 700 kg, under narcosis and by electrical means a sperm sample was obtained and it was established that it was in a seasonal oligospermial state. Symptoms of this were the following: under microscope magnifying 1500 times and used in sperm evaluation the number of sperm found was 5-20 and defective sperms reached 75-80%. The density of the ejaculate was 0.5. Sperms of this quality are unsuitable for fertilization. Thereafter, twice weekly the animal was treated intramuscularly with 200-200 μg dose each of D-phe^6, Gln^8 -GnRH analogue, using the compressed air injection method. On the 55th day following commencement of treatment, under narcosis and with a time lapse of one hour the animal was ejaculated twice. The two ejaculates were combined; their density was 4, their motility 55%. The thus-obtained sperms were deep frozen, then the decrease of motility as a result of deep freezing was checked: this was only 5%.

potential breeding sows = test: Inducing first successful rutting of female piglets in puberty; assay type: in vivo, pigs; details: treated group of 30
Method: For our tests 60 potential breeding sows were selected from a stock of 200 sows available at the farm, on the basis of best growing vigor and feed conversion determined by industrial technology. These animals were put into 2 random groups of 30 each. Both groups, also according to industrial technology, were kept without food and drink for 24 hours. Animals at time of selection were injected intramuscularly with D-Phe^6, Gln^8 -GnRH analogue diluted in normal saline solution, then injections were repeated with 20 μg doses each from the same analogue twice with 24 hours intervals. The first rutting animal appeared 5 days after selection both in the untreated control group and in the treated group. Both groups were kept in the same sty, air-space, under similar conditions for 26 days as permitted in the industrial farming technology. During this time 3 animals (10%) from the untreated control and 21 animals (70%) from the treated stock rutted successfully. […] In this test series exact timing of ovulation was not amongst aims since only a few boars were available. For this reason, aim of the treatment was "the first successful rutting" within 26 days. 10% of the sows in farrow was a result acceptable to industrial farming average, thus the increase to 70% as a result of treatment means a very significant economic advantage.

[1] = system: primordial follicles of infant domestic female cat; test: Stimulating primordial follicles in infant domestic female cat; assay type: in vivo, Felis cattus domesticus; details: 0.1 μg i.m. three times daily for three days
Method: 5 kittens of 0.3 kg weight and being 45 days old were treated with D-Phe^6, Gln^8 -GnRH analogue in such a way that under narcosis the left-side ovary was removed. Thereafter the medium was treated for three days, three times daily, with a 4-hour time interval between treatments. Treatment was carried out nine times in all and every instance a 0.1 μg dose of the analogue was used. The active ingredient was suspended in normal saline solution and propyleneglycol and it was administered intramuscularly. After treatment remaining ovaries were removed, evaluated visually, then after fixing hystological examination was performed. Visually both ovaries were butter-yellow, looked homogeneous, but the treated ovary was slightly enlarged.

SMILES: CC(C)C[C@H](NC(=O)[C@@H](Cc1ccccc1)NC(=O)[C@H](Cc1ccc(O)cc1)NC(=O)[C@H](CO)NC(=O)[C@H](Cc1c[nH]c2ccccc12)NC(=O)[C@H](Cc1c[nH]cn1)NC(=O)[C@@H]1CCC(=O)N1)C(=O)N[C@@H](CCC(N)=O)C(=O)N1CCC[C@H]1C(=O)NCC(N)=O [D-Phe^6, Gln^8 -GnRH analogue, D-Phe^6, Gln^8 -GnRH] ([pGlu]HWSY[dF]LQPG-NH2)
- ovulations and corpora haemorrhagica in each animal (infant domestic rabbits): 30-40
- ovulations (infant female pigs): 15-36
- decrease of motility as a result of deep freezing (bison bull): 5%
- density of ejaculate (bison bull; 200 μg i.m. twice weekly, two ejaculates combined): 4
- sperm motility (bison bull; two ejaculates combined): 55%
- animals that rutted successfully within 26 days (potential breeding sows; three i.m. injections at 24 h intervals, 20 μg): 21 animals
- share of animals that rutted successfully within 26 days (potential breeding sows; untreated control 10%): 70%
- follicles which started to grow in treated ovary [1]: many hundreds of
